# How the values were obtained:
# [1] = Fraction unbound in rat plasma; format: in vitro ADME; conditions: read-out: FU Value (FU Plasma Exp Rat)
# Excerpt: Supplement Table_2.xlsx, sheet "Supplementary table 2"
# [2] = test system: Sprague Dawley rats; assay: Rat ear temperature (vasodilation); format: in vivo
# Procedure: Male Sprague Dawley rats at 6 to 7 weeks were dosed orally by p.o. gavage with different doses of BTTQ formulated in 1% hydroxyethlycellulose (Dow Corning, Midland, MI, United States) (w/v), 0.25% polysorbate 80 (Sigma-Aldrich, St. Louis, MO, United States) (v/v), and 0.05% antifoam (v/v; Dow Corning, Midland, MI, United States) in purified water. Following dosing, ear temperature was measured by using a k-type thermocouple probe digital thermometer (Cole Parmer) every hour for 6 h and then at 24 h. Blood samples for plasma exposure measurement were obtained at the same time. Blood was collected via a tail snip directly into a 20-μL EDTA-coated capillary and immediately spotted onto a Whatman DMPK-C DBS card (GE Healthcare Bio-Sciences). Tail snips were performed by removing approximately 1 mm of the tail by using a scalpel. Blood flow was initiated by gentle squeezing of the tail. No analgesia or anesthesia was used during blood collections. A single sample and spot were collected per time point. The DBS cards were allowed to dry for approximately 2 h at room temperature, after which the cards were placed in a zip-top bag, stored, and shipped at ambient temperature.
# (§1) All data in this manuscript were presented as mean ± SEM with a significance level of p < 0.05, and n represents the number of individual animals. The significance of differences in concentration-response curves in the ear temperature and, myograft study were calculated using t-test, compare to the vehicle group. The EC50 was calculated using GraphPad Prism 8.3 using a 4-parameter logistic non-linear curve fit model. Single-dose rat telemetry data for normal and SHR rats and repeat-dose telemetry data in Dahls salt-sensitive rats were analyzed by two-way repeated measures ANOVA. Treatment group main effects were compared by Tukey’s HSD method. All telemetry data were analyzed with GraphPad Prism 8.3.
# [3] = test system: Spontaneous Hypertensive rats (SHR); assay: Rat telemetry, blood pressure and heart rate; format: in vivo
# Excerpt: (§2) Male Sprague Dawley (Taconic Biosciences) rats, Spontaneous Hypertensive rats (Charles River Laboratories, United States), and Dahl Salt Sensitive rats (Medical College of Wisconsin) were implanted with transmitters (HD S10; Data Science International) for collection of BP and heart rate (HR) data. The transmitters are capable of transmitting a BP signal via a pressure catheter inserted into the abdominal aorta. Initially, a baseline was established and recorded. Each rat was then removed from its recording cage and was dosed by p.o. gavage with vehicle or compound and the animals were then returned to the recording cage. Data sampling for BP and HR was carried out in intervals at selected time points for the duration of the experiment.
# as §1
# [4] = test system: Sprague Dawley rats; assay: Rat telemetry, blood pressure and heart rate; format: in vivo
# Excerpt: as §2, §1
# [5] = test system: Dahl Salt Sensitive rats; assay: Rat telemetry, blood pressure and heart rate; format: in vivo
# Excerpt: as §2, §1
# [6] = test system: mesenteric arteries from Dahl SS rats; assay: Myography in isolated mesenteric arteries; set-up: species or system Rat
# Excerpt: For studies of the mesenteric arteries, rats were anesthetized using 5% isoflurane gas followed by euthanasia by secondary method. Small mesenteric arteries (∼300-μm internal diameter, 350-μm external diameter) supplying the small intestine were carefully excised under a dissecting microscope (Leica; Buffalo, NY, United States) and immersed in a cold physiological salt solution having the following ionic composition (in mM): NaCl (119.0), KCl (4.7), CaCl2 (1.6), NaH2PO4 (1.18), MgSO4 (1.17), NaHCO3 (24.0), D-glucose (5.5), and EDTA (0.03). The arteries were cannulated at the proximal and distal ends using glass micropipettes. The vessels were equilibrated with a 21% O2, 5% CO2, 74% N2 gas mixture at 37°C in the physiological salt solution for 30 min. The intraluminal pressure was maintained at 80 mmHg to approximate in vivo conditions, and the internal diameter of the artery was measured using television microscopy. Responses to vasodilator stimuli (different BTTQ concentrations) were determined in arteries precontracted with 10 μM phenylephrine (PE) and expressed as % increase from basal (PE-precontracted) diameter. Responses of the mesenteric arteries to the endothelium-dependent vasodilator agonist acetylcholine (ACh) were evaluated in SS rats fed a high salt diet (4% NaCl) for 3 weeks and treated with BTTQ (3 mg/kg) p.o. gavage twice daily or vehicle.
# [7] = 3 mg/kg twice daily oral for 21 days, high salt (4%) diet
structure (smiles),measurement,setting,value
"O=c1c2nnc(C3(C4CC4)CC3)n2c2c(n1CC1CC1)CCCC2 [BTTQ, 1-[1,1′-bi(cyclopropyl)-1-yl]-5-(cyclopropylmethyl)-6,7,8,9-tetrahydro[1,2,4]triazolo[4,3-A]quinoxaline-4(5H)-one]",fraction unbound,[1],0.053
same,increase of ear temperature compared to the vehicle control,"[2]; 3 mg/kg single oral dose, within 1 h",14%
same,ear temperature,"[2]; 0.1, 0.3, and 1 mg/kg single oral dose",significant dose-dependent increase
same,ED50,"[2]; Rattus norvegicus, single oral dose, 1 h time point, four parametric logistic equation, read-out: median effective dose (ED50), ear temperature",0.14 mg/kg
same,time at which ear temperature returned to baseline,"[2]; all doses, single oral dose",6 h
same,time for which the increase in ear temperature stayed significant,[2]; single oral dose,up to 3 h
same,effect on BP,[3]; 0.03 mg/kg twice daily oral,did not show any effect
same,effect on HR,[3]; 0.03 mg/kg twice daily oral,did not show any effect
same,MAP,"[3]; 0.03, 0.1, 0.3, 1, and 3 mg/kg twice daily oral, 24 h telemetry",dose-dependent decrease
same,heart rate,[3]; 0.03-3 mg/kg twice daily oral,dose-dependent increase
same,additional blood pressure lowering,[3]; BTTQ administered on top of ACE inhibitor,about 22 mmHg
same,lowering of blood pressure compared to the vehicle-treated group,[3]; SHR,~36 mmHg
same,heart rate,[4]; 1 and 3 mg/kg twice daily oral,dose-dependent increase
same,immediate decrease in MAP compared to the vehicle,"[4]; 1 and 3 mg/kg twice daily oral (both groups), within 1 h of the first dose",about 5 mmHg
same,time after second dose at which BP-lowering effect returned to baseline,[4]; high dose group (3 mg/kg twice daily oral),7 h
same,lowering of blood pressure compared to the vehicle-treated group,[4]; normal Sprague Dawley rats,about 9 mmHg
same,MAP compared to the vehicle-treated group,[5]; [7],profound reduction
same,heart rate,[5]; [7],elevation of heart rate
same,lowering of blood pressure compared to the vehicle-treated group,[5]; Dahl salt-sensitive rats,~24 mmHg
same,"relaxation, % of the initial fully relaxed diameter","[6]; 1 mM, arteries pre-constricted with 10 μM phenylephrine",about 92%
same,"acetylcholine-induced vasorelaxation, treated vs vehicle group","[6]; arteries from Dahl SS rats treated by oral gavage (3 mg/kg twice daily), high salt diet 21 days",no significant difference
same,relaxation of mesenteric arteries compared to the vehicle,"[6]; escalating concentrations, pre-constricted with 10 μM phenylephrine",concentration-dependent relaxation

# Reference: paper PMC7506137, “Selective Phosphodiesterase 1 Inhibitor BTTQ Reduces Blood Pressure in Spontaneously Hypertensive and Dahl Salt Sensitive Rats: Role of Peripheral Vasodilation” (Frontiers in Physiology, 2020)
